From patent US20220184091A1, “Methods of Treating Cancer with Chk1 Inhibitors” (Sierra Oncology, Inc., priority 2019, published 2022)

Key:
[1] = tested on: CXCL10 and CCL5; assay: qPCR of CXCL10 and CCL5 in MC38 tumors; assay type: in vivo, mouse
Excerpt: FIGS. 23A-D show the qPCR measurement of CXCL10 and CCL5 mRNA expression in MBT-2 (FIG. 23A and FIG. 23B) and MC38 (FIG. 23C and FIG. 23D) tumors resected after 7 or 14 days of treatment with SRA737 5/7 days. Data presented as mean±SD and p values by t-test * p<0.05, **p<0.01, ***p<0.001.
(§1) Real-time PCR was done using SYBR Select Master Mix (Life Technologies, cat #4472908) according to the manufacturer's protocol. Primers were purchased from Sigma Aldrich, Inc. Triplicate PCR reactions were run on ABI (7500 Fast Real Time PCR System). The comparative Ct method using the average 2ΔΔCT value for each set of triplicates was used, and the average of the biological replicates was calculated. Negative controls were included for every primer set, and GAPDH was used as the […].
The flank of immunocompetent mice was then treated with SRA737 monotherapy for 5-days-on/2-days-off for either one or two cycles and the expression of CCL5 and CXCL10 in extracted tumors were analyzed. […] The previously used dosing regimen of 5-days-on/2-days-off was modified to a schedule of 7-days-on/7-days-off for SRA737 treatment with or without co-treatment with anti-PD1 (Days 3, 7 and 11) based on the results of induction of chemokines secretion after 7 days.

[2] = tested on: IFNβ, CXCL10 and CCL5; assay: qPCR of IFNβ, CXCL10 and CCL5 in resected RPP tumors; assay type: in vivo, mouse
Experimental: Data presented as mean±SD and p values by t-test * p<0.05, **p<0.01, ***p<0.001.
as §1

[3] = tested on: SCLC cell lines; assay: CellTiter-Glo cell viability assay, SCLC cell line panel; assay type: cell-based, human and murine; conditions: 96 h
Experimental: SCLC cell lines were incubated with dimethyl sulfoxide (vehicle control), SRA737 or Gemcitabine for 96 hours at nine distinct concentrations, with the maximum dose being 10 μM. A CellTiter-Glo luminescent cell viability assay (Promega) was performed after 96 hours of treatment as per the manufacturer's specifications. IC50 values were estimated using Drexplorer, as previously described (Tong P, Coombes K R, Johnson F M, Byers L A, Diao L, Liu D D, Lee J J, Heymach J V, Wang J. drexplorer: A tool to explore dose-response relationships and drug-drug interactions. Bioinformatics. 2015 May 15; 31(10):1692-4.)
To investigate the in vitro activity of SRA737, a panel of 51 SCLC cell lines, including one murine derived model, and a panel of NSCLC, pancreatic, colon and bladder cancer cell lines were screened.

[4] = Excretion of SRA737 in mice; assay type: in vivo, mouse; conditions: 24-hour collection
Experimental: The excretion of SRA737 has been studied in mice and rats administered SRA737 at either 5 mg/kg IV or 10 mg/kg orally. Urine and feces were collected for a 24-hour period after dosing. In mice, renal excretion of intact SRA737 was consistently low (less than 10% of dose) after both oral and IV administration. Following IV administration of SRA737, less than 8% of the dose was recovered as intact drug in the feces while after oral administration this figure was less than 3%. Excretion of intact SRA737 was lower in the rat than in the mouse with <1% of dose excreted renally over 24 hours and less than 1.5% of dose excreted into the feces over 24 hours.

[5] = tested on: MBT-2; assay: MBT-2 bladder flank tumor growth in immunocompetent mice; assay type: in vivo, mouse; conditions: SRA737 100 mg/kg 5-days-on/2-days-off p.o., anti-PD1 BIW 10 mg/kg i.p.
Experimental: Tumors were evaluated twice weekly for the duration of the study. Tumor volumes were measured on all mice three times per week and calculated (width^2×length×0.4) using manual calipers. Once the average tumor size was in the range of 120-150 mm^3, mice were randomized into dosing groups using stratified sampling by assigning three animals per group for short-term reverse-phase protein array analysis and long-term treatment. Dosing schedules and duration varied depending on the study. Mice were weighed three times per week for the duration of the study, and a decrease in body weight >15% was considered indicative of a toxic dose. The Student t-test was used to determine statistical significance between compound- and vehicle-treated groups.
Tumors cells were implanted into the flank of immunocompetent mice. Once the volumes of the tumor reached 150-200 mm^3, the mice were randomized and treated with either monotherapy of SRA737 at 100 mg/kg for 5-days-on/2-days-off p.o., anti-PD1 BIW at 10 mg/kg i.p. or the combination thereof.

[6] = tested on: 5637; assay: Cell viability, bladder cancer line 5637; assay type: cell-based
[7] = tested on: CD4+ and CD8+ cells; assay: CD4 and CD8 IHC staining in MC38 tumors; assay type: in vivo, mouse; conditions: after 14 days, SRA737 7-days-on/7-days-off, antibody Days 3, 7 and 11
Experimental: Measurements were taken post treatment on day 15.
For immunohistochemistry, cryosections (8 μm) of tumor tissues were fixed with acetone and stained with antibody against mouse CD4 (Sinobiological, Cat. no. 50134-R001) and CD8 (eBioscience, Cat. No. 14-0808-82) and horseradish peroxidase-conjugated secondary antibody. The image of the entire stained tumor section was scanned with an Olympus BX41 microscope and a semi-quantitative immunohistochemical score was determined by visual examination of the entire stained section of the tumor. The score between 0-6 was assigned by taking into consideration the intensity of positive staining within the tumor section and the prevalence of positive staining within the entire tumor section.
The MC38 tumors were then harvested after 14 days of treatment with SRA737 monotherapy and its combination therapy with an […] (Days 3, 7 and 11) according to a modified dosing regimen of 7-days-on/7-days-off to determine the infiltration of CD4+ and CD8+ cells by immunohistochemistry staining. […] The tumor growth inhibition under this altered dosing regimen was 61% in SRA737 monotherapy and 63% in the combination therapy of SRA737 and anti-PD-1. […]

[8] = tested on: human hepatocytes; assay: Stability and metabolites in cryopreserved hepatocytes, human; assay type: in vitro ADME; conditions: 10 μM, up to 4 hours
Experimental: The formation of SRA737-related metabolites was determined in cryopreserved hepatocytes from human, mouse, rat, dog, minipig and monkey samples after incubation with SRA737 at a nominal concentration of 10 μM for up to 4 hours. […] In the human hepatocyte preparation, approximately 67% of the parent remained after 4 hours of incubation compared to 75% and 7% in the rat and minipig preparations, respectively. Eight human SRA737 metabolites were observed. All SRA737 metabolites formed by human hepatocytes were also formed by monkey hepatocytes. Six metabolites were present at equal or greater abundance in the monkey.

- dose recovered as intact drug in the feces ([4]; IV administration): less than 8 % of dose
- dose recovered as intact drug in the feces ([4]; oral administration): less than 3 % of dose
- IC50 [6]: 2.1 µM
- human SRA737 metabolites observed [8]: Eight
Compound: N#Cc1cnc(Nc2cc(NCC3CNCCO3)c(C(F)(F)F)cn2)cn1 (stereo not drawn) [SRA737, 5-[[4-[[morpholin-2-yl]methylamino]-5-(trifluoromethyl)-2-pyridyl]amino]pyrazine-2-carbonitrile]
- expression of CCL5 ([1]; after 7 days): modestly but not statistically significantly reduced
- CXCL10 levels ([1]; after 14 days, p<0.05): significantly increased
- gene expression levels of IFNβ, CXCL10 and CCL5 vs vehicle ([2]; RPP tumors at Day 21, 100 mg/kg 5-days-on/2-days-off): higher gene expression levels
- expression of IFNβ, CCL5 and CXCL10 ([2]; RPP tumors resected at Day 21, SRA737 2-days-on/5-days-off): Neither LDG nor SRA737 monotherapy (2-days-on/5-days-off) showed any significant effect
- IC50 ([3]; SCLC cell lines classified resistant (n=35)): > 5 µM
- IC50 ([3]; SCLC cell lines classified sensitive (n=15)): < 5 µM
- TGI [5]: 53%
- infiltration of CD4+ and CD8+ cells into the tumors [7]: significant increase
